Tests used:
Type in all cases: biochemical
MMP-9 = MMP-9 (Homo sapiens, UniProt P14780); test: MMP-9 inhibition (inhibitory profile); settings: Table 2
Experimental: (§1) The compounds were measured for MMP-1, 2, 9, 13 to determine their inhibitory profile. Efficiency Index amplifies the two major required effects, selectivity against MMP-1 and the inhibitory activity.

[1] = molecular target: T1, MMP-2 enzyme isolated from rat heart (Rattus norvegicus, UniProt P33436); test: Gelatin zymography on cardiac MMP-2
T1 construct: we used full-length, active MMP-2 enzymes isolated from healthy young adult rat hearts; from tissue; host or cells: rat heart homogenate (healthy young adult rats)
T1 sequence (P33436 110-662): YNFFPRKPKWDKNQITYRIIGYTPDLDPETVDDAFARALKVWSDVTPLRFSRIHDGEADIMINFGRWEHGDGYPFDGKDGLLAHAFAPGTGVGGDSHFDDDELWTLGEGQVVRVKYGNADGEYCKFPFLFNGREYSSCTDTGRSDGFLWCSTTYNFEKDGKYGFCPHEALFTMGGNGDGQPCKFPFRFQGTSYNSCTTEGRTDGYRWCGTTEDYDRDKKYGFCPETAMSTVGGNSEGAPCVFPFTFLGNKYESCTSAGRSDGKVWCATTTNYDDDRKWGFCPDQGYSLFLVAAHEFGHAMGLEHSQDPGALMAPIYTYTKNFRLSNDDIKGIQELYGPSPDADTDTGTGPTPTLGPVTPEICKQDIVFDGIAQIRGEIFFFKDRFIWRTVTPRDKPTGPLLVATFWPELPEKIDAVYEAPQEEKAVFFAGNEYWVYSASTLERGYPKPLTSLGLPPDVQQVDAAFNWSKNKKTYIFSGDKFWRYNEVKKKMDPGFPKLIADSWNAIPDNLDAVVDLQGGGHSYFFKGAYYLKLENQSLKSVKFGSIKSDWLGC
Experimental: Gelatin zymography was performed as described previously (Kupai et al., [2010]; Bencsik et al., [2017]). MMP-2 was isolated from rat heart homogenates as follows: 50 μg protein/lane were loaded and separated by electrophoresis under non-reducing conditions on an 8% SDS-polyacrylamide gels copolymerized with 2 mg/ml gelatin from porcine skin (Sigma-Aldrich; St. Louis, MO). After electrophoresis, gels were washed in 2.5% Triton-X 100 with gentle agitation and then incubated for 20 h at 37°C in zymography development buffer (50 mM Tris-HCl, pH 7.5, containing 5 mM CaCl2, 200 mM NaCl) in the presence or abscence of the MMP inhibitor compounds. Zymographic gels were stained in a 0.05% Coomassie Brilliant Blue R-250 solution followed by destaining, and then zymograms were scanned. MMP activity was detected as a colorless transparent zone on a blue background and the clear bands in the gel were quantified by densitometry using the Quantity One software (Bio-Rad, Hercules, CA). The obtained density values were measured and percentage of inhibition values were then calculated.
To confirm the MTS screen results, we tested the potential MMP inhibitor molecules on MMP-2 enzyme isolated from rat heart in vitro. Therefore, we applied the MMPIs at 1 and 100 μM final concentration in the enzyme's development buffer (Table 3).
After the chemical optimization of the novel MMP inhibitor lead candidates, we determined their IC50 values by using gelatin zymography. During zymographic analysis, we used full-length, active MMP-2 enzymes isolated from healthy young adult rat hearts. Subsequently, the cardio-cytoprotective effects of the selected candidates having the lowest IC50 values to MMP-2 were tested in cultured neonatal cardiac myocytes subjected to simulated I/R injury. Cardiac myocyte cell culture assay allowed a relatively high throughput biological efficacy testing (Gorbe et al., [2010]) of the selected lead candidates in several dose ranges at different levels of inhibition of MMP-2 activity.

MMP-13 = MMP-13 (Homo sapiens, UniProt P45452); test: MMP-13 inhibition (inhibitory profile); settings: Table 2
Experimental: as §1

MMP-1 = molecular target: T2, MMP-1 (Homo sapiens, UniProt P03956); test: MMP-1 inhibition (inhibitory profile); settings: Table 2
T2 sequence (P03956 100-469): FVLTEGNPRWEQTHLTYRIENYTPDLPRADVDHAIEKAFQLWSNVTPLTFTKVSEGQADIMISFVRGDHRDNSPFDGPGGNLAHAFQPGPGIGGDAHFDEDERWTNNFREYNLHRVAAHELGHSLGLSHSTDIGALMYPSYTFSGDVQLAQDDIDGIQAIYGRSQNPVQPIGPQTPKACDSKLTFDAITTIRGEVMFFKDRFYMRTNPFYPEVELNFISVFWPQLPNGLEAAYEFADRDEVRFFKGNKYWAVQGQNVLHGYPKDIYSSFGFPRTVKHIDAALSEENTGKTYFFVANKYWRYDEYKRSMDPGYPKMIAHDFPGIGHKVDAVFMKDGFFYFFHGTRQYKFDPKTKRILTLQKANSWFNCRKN
Experimental: as §1

MMP-9, sequence (P14780 94-707, species assumed): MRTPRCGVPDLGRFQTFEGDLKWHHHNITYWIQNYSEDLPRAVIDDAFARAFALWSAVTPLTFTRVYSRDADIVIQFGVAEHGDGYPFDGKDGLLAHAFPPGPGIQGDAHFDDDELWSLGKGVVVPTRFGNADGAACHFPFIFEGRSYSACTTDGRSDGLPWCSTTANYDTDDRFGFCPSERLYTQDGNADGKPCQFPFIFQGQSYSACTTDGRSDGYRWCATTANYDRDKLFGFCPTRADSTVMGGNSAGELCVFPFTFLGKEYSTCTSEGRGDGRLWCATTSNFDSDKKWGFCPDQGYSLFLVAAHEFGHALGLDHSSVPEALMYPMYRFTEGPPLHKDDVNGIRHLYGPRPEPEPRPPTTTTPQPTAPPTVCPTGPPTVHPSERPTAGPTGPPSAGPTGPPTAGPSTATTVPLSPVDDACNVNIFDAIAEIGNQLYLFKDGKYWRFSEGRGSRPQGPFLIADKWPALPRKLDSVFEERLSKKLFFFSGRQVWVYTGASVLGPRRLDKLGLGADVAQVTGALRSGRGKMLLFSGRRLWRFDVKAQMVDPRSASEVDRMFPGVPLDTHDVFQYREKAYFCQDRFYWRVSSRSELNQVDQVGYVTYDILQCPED

IC50 (MMP-9): 13 µM | inhibition at 100 µM ([1]; 100 μM, cardiac MMP-2, gelatin zymography, read-out: Inhibition (%)±SEM at 100 μM final MMP inhibitor concentration): 100% | EC50 ([1]; concentration labelled EC50 in Supplementary Figure 4, doses calculated according to IC doses in vitro): 2.5 µM | IC20 ([1]; concentration used in the ex vivo model, read-out: IC20 value (MMP-2 inhibition)): 1 µM | IC50 ([1]; most effective concentration in cell culture experiments, read-out: IC50 value (MMP-2 inhibition)): 2.5 µM | IC50 (MMP-13): 1.8 µM | IC50 (MMP-1): 10 µM
Compound: O=C(O)c1c[nH]c(CN(Cc2ccc(F)cc2)Cc2ccc(OCc3ccccc3)cc2)n1 [MMPI-1154]

Reference: paper PMC5896266, “Development of Matrix Metalloproteinase-2 Inhibitors for Cardioprotection” (Frontiers in Pharmacology, 2018)
